This note sets out measurements from US8486965B2, “Pyrrolo[2,3-b]pyridine derivative and use thereof for treatment of cancer” (Takeda Pharmaceutical Company Limited, priority 2009, dated 2013).

By inhibition is commonly meant the drop in the measured response relative to a control, in per cent.

For the assay, the system named is Hedgehog signal transduction system (Smo). Put plainly: Gli reporter luciferase assay in NIH-3T3/Gli reporter cells stimulated with mouse Shh-N end fragment. The format is cell-based. The note with it: NIH3T3; 1 μM compound; NIH-3T3/Gli reporter cells with mouse Shh-N end fragment culture supernatant, 48 hr; luciferase activity, control without compound as 100; read-out: inhibition rate (%) at 1 μM. From the text: Inhibition of the Hedgehog signal transduction system can be measured, for example, by quantifying a decrease in the expression level of a reporter gene connected to the downstream of the Gli binding site based on the fluorescence intensity according to the following Experimental Example 1. Alternatively, it can be measured by quantifying the expression of Gli-1 mRNA in a cell extract by quantitative PCR method and the like. A compound that inhibits Hedgehog signal targets Smo, which can be confirmed, for example, by binding fluorescence-labeled Cyclopamine and a test compound to cells expressing Smo, measuring the fluorescence level of the cell, and comparing the value with that without addition of a test compound to find a decrease.
Gli reporter plasmid was constructed by inserting 8×Gli-binding site and chicken δ-crystalline promoter into the upstream of luc+ of pGL3 (Promega).
prepared in reference to the base sequence described in GenBank accession No.; X02187, and chicken genome DNA (Clontech) as a template. PCR reaction was performed using Pfu Turbo (Stratagene) and following the attached protocol. The obtained 108 bp fragment was digested with restriction enzymes BglII and HindIII, and inserted into BglII-HindIII site of pGL3 to give plasmid pGL3/δ-cry promoter.
As 8× Gli-binding site, a sequence containing eight 9-bp Gli bound consensus sequences (GACCACCCA) described in Yoon et al., J. Biol. Chem., vol. 273, pages 3496-3501 (1998) was prepared from synthetic DNA. That is, two synthetic DNAs,
were heat treated at 95° C. for 2 minutes, and incubated at 37° C. for 1 hr for annealing to give a double stranded DNA of the above-mentioned two synthetic DNAs. The obtained double stranded DNA was digested with restriction enzymes BglII and KpnI, and the obtained DNA fragment was inserted into BglII-KpnI site of pGL3/δ-cry promoter to construct plasmid pGL3/δ-cry promoter, 8× Gli binding site, i.e., Gli reporter plasmid. 2. Construction of Plasmid for Expression of Mouse Shh-N End Fragment
As a material for construction of plasmid for Shh-N end fragment expression, mouse Shh cDNA was cloned at first.
The mouse Shh cDNA was cloned by Nested PCR method using mouse 11-day fetus cDNA (Clontech) as a template. The primer sequence was prepared in reference to the base sequence described in GenBank accession No.; NM_009170.
Using the mouse Shh cDNA sequence obtained as mentioned above as a template, a partial cDNA sequence wherein stop codon (TGA) was added to 3′-terminal of cDNA sequence encoding 1st to 198th amino acid sequence of mouse Shh was obtained by PCR method. As the primer set,
In the manner mentioned above, a plasmid for mouse Shh-N end fragment expression, pcDNA3.1/mShh-N, was constructed.
HEK293 cells were grown in D-MEM medium (Invitrogen) containing 10% fetal bovine serum in a 10 cm dish and pcDNA3.1/mShh-N was introduced into the cells using FuGENE6 (Roche Applied Science). Thereafter, the HEK293 cells were cultured in a carbon dioxide gas incubator at 37° C. for 24 hours, and the medium was exchanged with D-MEM medium (Invitrogen) containing 2% fetal bovine serum. After culturing for 48 hr, culture supernatant containing recombinant type mouse Shh-N end fragment was obtained by filtration using a filter ([…]).
Using D-MEM (Invitrogen) containing 10% fetal bovine serum, expression plasmid pcDNA3:1 and Gli reporter plasmid (pGL3/δ-cry promoter, 8× Gli binding site) produced by the method of Experimental Example 1 were introduced into NIH-3T3 cells grown in a 10 cm dish by the use of FuGENE6 (Roche Applied Science).
After culture for 24 hr, the cells were recovered, suspended in D-MEM medium containing 10% fetal bovine serum and supplemented with Geneticin (Life Technologies Oriental, Inc.) to a final concentration of 500 μg/ml, diluted to 10^4 cells/ml, plated on a 96 well plate, and cultured in a carbon dioxide gas incubator at 37° C. to give Geneticin resistant transformed cell line. […]
Turning to `Cc1nc2c(cc1NC(=O)c1ccc(F)cc1)c(OCC(F)(F)F)c(C(=O)NC1CCN(C(=O)CO)CC1)n2C` [Example 48, 5-{[(4-fluorophenyl)carbonyl]amino}-N-[1-(hydroxyacetyl)piperidin-4-yl]-1,6-dimethyl-3-(2,2,2-trifluoroethoxy)-1H-pyrrolo[2,3-b]pyridine-2-carboxamide], the inhibition at 1 µM turned out to be 97%.

For the molecule `CCc1nc2c(cc1NC(=O)c1cccs1)c(OCC(F)(F)F)c(C(=O)NC1CCN(C(=O)CO)CC1)n2C` [Example 29, 6-ethyl-N-[1-(hydroxyacetyl)piperidin-4-yl]-1-methyl-5-[(thiophen-2-ylcarbonyl)amino]-3-(2,2,2-trifluoroethoxy)-1H-pyrrolo[2,3-b]pyridine-2-carboxamide], the inhibition at 1 µM was 95%.

As for `CCc1nc2c(cc1NC(=O)c1ccccc1)c(OC(C)C)c(C(=O)NCCS(=O)(=O)CCOC)n2C` [Example 60, 6-ethyl-N-{2-[(2-methoxyethyl)sulfonyl]ethyl}-1-methyl-3-(1-methylethoxy)-5-[(phenylcarbonyl)amino]-1H-pyrrolo[2,3-b]pyridine-2-carboxamide], the inhibition at 1 µM stood at 95%.

On to `CCc1nc2c(cc1NC(=O)c1sccc1Cl)c(OC(C)C)c(C(=O)NC1CCN(C(=O)CO)CC1)n2C` [Example 63, 5-{[(3-chlorothiophen-2-yl)carbonyl]amino}-6-ethyl-N-[1-(hydroxyacetyl)piperidin-4-yl]-1-methyl-3-(1-methylethoxy)-1H-pyrrolo[2,3-b]pyridine-2-carboxamide], for which the inhibition at 1 µM was 96%.

For the molecule `CCc1cc2sc(C(=O)NC3CCN(C(=O)CO)CC3)c(OCC(F)(F)F)c2cc1NC(=O)c1ccccc1` [Example 149, 6-ethyl-N-[1-(hydroxyacetyl)piperidin-4-yl]-5-[(phenylcarbonyl)amino]-3-(2,2,2-trifluoroethoxy)-1-benzothiophene-2-carboxamide], the inhibition at 1 µM was 85%.

For `CCc1nc2c(cc1NC(=O)c1ccccc1)c(OCC(F)(F)F)c(C(=O)NC1CCS(=O)(=O)CC1)n2C` [Example 40, N-(1,1-dioxidotetrahydro-2H-thiopyran-4-yl)-6-ethyl-1-methyl-5-[(phenylcarbonyl)amino]-3-(2,2,2-trifluoroethoxy)-1H-pyrrolo[2,3-b]pyridine-2-carboxamide], the inhibition at 1 µM turned out to be 97%.

For the molecule `Cc1nc2c(nc1NC(=O)c1ccccc1)c(OCC(F)(F)F)c(C(=O)NC1CCN(C(=O)CO)CC1)n2C` [Example 145, N-[1-(hydroxyacetyl)piperidin-4-yl]-3,5-dimethyl-2-[(phenylcarbonyl)amino]-7-(2,2,2-trifluoroethoxy)-5H-pyrrolo[2,3-b]pyrazine-6-carboxamide], the inhibition at 1 µM is 98%.

For the molecule `CCc1nc2c(cc1NC(=O)c1ccccn1)c(OCC(F)(F)F)c(C(=O)NC1CCN(C(=O)CO)CC1)n2C` [Example 42, 6-ethyl-N-[1-(hydroxyacetyl)piperidin-4-yl]-1-methyl-5-[(pyridin-2-ylcarbonyl)amino]-3-(2,2,2-trifluoroethoxy)-1H-pyrrolo[2,3-b]pyridine-2-carboxamide], the inhibition at 1 µM came to 92%.

Consider `Cc1nc2c(cc1NC(=O)c1ccccc1)c(OC(C)C)c(C(=O)NC1CCN(C(=O)CO)CC1)n2C` [Example 155, N-[1-(hydroxyacetyl)piperidin-4-yl]-1,6-dimethyl-3-(1-methylethoxy)-5-[(phenylcarbonyl)amino]-1H-pyrrolo[2,3-b]pyridine-2-carboxamide], for which the inhibition at 1 µM turned out to be 99%.

`CCOc1c(C(=O)NC2CCN(C(=O)CO)CC2)n(C)c2nc(CC)c(NC(=O)c3ccccc3)cc12` [Example 45, 3-ethoxy-6-ethyl-N-[1-(hydroxyacetyl)piperidin-4-yl]-1-methyl-5-[(phenylcarbonyl)amino]-1H-pyrrolo[2,3-b]pyridine-2-carboxamide]: the inhibition at 1 µM came to 98%.

Take `CCc1nc2c(cc1NC(=O)c1ccco1)c(OCC(F)(F)F)c(C(=O)NC1CCN(C(=O)CO)CC1)n2C` [Example 52, 6-ethyl-5-[(furan-2-ylcarbonyl)amino]-N-[1-(hydroxyacetyl)piperidin-4-yl]-1-methyl-3-(2,2,2-trifluoroethoxy)-1H-pyrrolo[2,3-b]pyridine-2-carboxamide]: the inhibition at 1 µM was determined as 94%.

Take `CCc1nc2c(nc1NC(=O)c1ccc(F)cc1)c(OC(C)C)c(C(=O)NC1CCN(C(=O)CO)CC1)n2C` [Example 162, 3-ethyl-2-{[(4-fluorophenyl)carbonyl]amino}-N-[1-(hydroxyacetyl)piperidin-4-yl]-5-methyl-7-(1-methylethoxy)-5H-pyrrolo[2,3-b]pyrazine-6-carboxamide]: the inhibition at 1 µM is 100%.

Take `CCc1nc2c(nc1-c1ccccc1)c(OCC(F)(F)F)c(C(=O)NC1CCN(C(=O)CO)CC1)n2C` [Example 144, 3-ethyl-N-[1-(hydroxyacetyl)piperidin-4-yl]-5-methyl-2-phenyl-7-(2,2,2-trifluoroethoxy)-5H-pyrrolo[2,3-b]pyrazine-6-carboxamide]: the inhibition at 1 µM was found to be 98%.

As for `CCc1cc2c(cc1NC(=O)c1ccccc1)c(OC(C)C)c(C(=O)NC1CCN(C(=O)CO)CC1)n2C` [Example 71, 6-ethyl-N-[1-(hydroxyacetyl)piperidin-4-yl]-1-methyl-3-(1-methylethoxy)-5-[(phenylcarbonyl)amino]-1H-indole-2-carboxamide], the inhibition at 1 µM was 97%.

Regarding `CCc1nc2sc(C(=O)NC3CCN(C(=O)CO)CC3)c(OCC(F)(F)F)c2cc1NC(=O)c1ccc(F)cc1` [Example 58, 6-ethyl-5-{[(4-fluorophenyl)carbonyl]amino}-N-[1-(hydroxyacetyl)piperidin-4-yl]-3-(2,2,2-trifluoroethoxy)thieno[2,3-b]pyridine-2-carboxamide], the inhibition at 1 µM was determined as 97%.

For the molecule `CCc1nc2c(cc1NC(=O)c1ccc(Cl)s1)c(OC(C)C)c(C(=O)NC1CCN(C(=O)CO)CC1)n2C` [Example 59, 5-{[(5-chlorothiophen-2-yl)carbonyl]amino}-6-ethyl-N-[1-(hydroxyacetyl)piperidin-4-yl]-1-methyl-3-(1-methylethoxy)-1H-pyrrolo[2,3-b]pyridine-2-carboxamide], the inhibition at 1 µM amounted to 95%.

On to `CCc1cc2c(nc1-c1ccccc1)c(OC(C)C)c(C(=O)NC1CCN(C(=O)CO)CC1)n2C` [Example 131, 6-ethyl-N-[1-(hydroxyacetyl)piperidin-4-yl]-1-methyl-3-(1-methylethoxy)-5-phenyl-1H-pyrrolo[3,2-b]pyridine-2-carboxamide], for which the inhibition at 1 µM is 82%.

Take `CCc1cc2c(nc1-c1ccccc1)c(OCC(F)(F)F)c(C(=O)NC1CCN(C(=O)CO)CC1)n2C` [Example 128, 6-ethyl-N-[1-(hydroxyacetyl)piperidin-4-yl]-1-methyl-5-phenyl-3-(2,2,2-trifluoroethoxy)-1H-pyrrolo[3,2-b]pyridine-2-carboxamide]: the inhibition at 1 µM was found to be 94%.

Take `CCc1nc2c(cc1NC(=O)c1ccc(F)cc1)c(OC(C)C)c(C(=O)NC1CCN(C(=O)CO)CC1)n2C` [Example 33, 6-ethyl-5-{[(4-fluorophenyl)carbonyl]amino}-N-[1-(hydroxyacetyl)piperidin-4-yl]-1-methyl-3-(1-methylethoxy)-1H-pyrrolo[2,3-b]pyridine-2-carboxamide]: the inhibition at 1 µM was determined as 95%.
